The values below come from patent publication US4698355A, “Anti-hypertensive agents” (University of Miami, priority 1979, dated 1987).

For experiment [1], the system named is ACE. The settings on record: cited from earlier work.
The subject of experiment [2] is human urinary ACE. Nature of the experiment: ACE activity assay (Benzoyl-GlyHisLeu substrate). The experiment is classed as biochemical. The settings on record: 0.05 M Hepes pH 8.0, 37° C. An excerpt:
The role of ACE in the pathogenesis of hypertension has prompted a search for inhibitors of the enzyme that could act as antihypertensive drugs. See for example U.S. Pat. Nos. 3,891,616, 3,947,575, 4,052,511 and 4,053,651. […] 6, 1977, and in scientific articles by Cushman, D. W. et al., Biochemistry 16, 5484 (1977), and by Ondetti, M. et al., Science 196, 441 (1977). […] These factors include the source of enzyme, its purity, the substrate used and its concentration, and the composition of the assay buffer. All I50 data reported herein have been performed with the same assay system and same enzyme (human urinary ACE) and with an approximately 1/2 Km level of substrate and are therefore internally consistent. Discrepancies with data obtained by other workers may be observed. Indeed such discrepancies do exist in the literature, for unknown reasons. See, for example, the I50 values for BPP9a reported by Cushman, D. W., et al., Experientia 29, 1032 (1973) and by Dorer, F. E., et al., Biochim. Biophys. Acta 429, 220 (1976).
ACE activity assay. For most experiments described herein, the enzyme was assayed in 0.05 M Hepes buffer, pH 8.0 containing 0.1 M NaCl and 0.75 M Na2 SO4. […] Enzyme was diluted in the above buffer such that 40 μl buffered enzyme was capable of hydrolyzing 13% of substrate in a 15-minute incubation at 37° C. […]

Experiment [3] deals with angiotensin I. Nature of the experiment: Oral effectiveness: blood pressure response to angiotensin I in anesthetized rats. It counts as in vivo, rat. The settings on record: oral 20 μmol/kg. How it is done:
(§1) Rats (210-290 g body weight) were fasted overnight and then anesthetized with intraperitoneal pentobarbital, 50-60 mg/kg. Tracheostomy was performed and the animals were ventilated mechanically. A cannula was inserted into a femoral vein for injection of angiotensin I, and a second cannula was inserted into a common carotid artery for direct measurement of arterial blood pressure. Heparin, 1,000 units, was injected via the femoral vein to prevent coagulation. Blood pressure was measured with a pressure transducer connected to a polygraph. The rats were injected with […] of angiotensin I in 20 μl of 0.9 g % NaCl; an amount of angiotensin I sufficient to raise mean arterial blood pressure by 38 mm Hg. After the responsiveness of a given rat to angiotensin I was established, the named compound at 20 μmol/kg (drug dissolved in 0.15 ml of H2 O plus 10 μl of 1 N NaHCO3), was given via a stomach tube. At timed intervals, the effects of 400 ng/kg of angiotensin I on mean arterial blood pressure were tested.

Experiment [4] relates to angiotensin I. Nature of the experiment: Intravenous effectiveness: blood pressure response to angiotensin I in anesthetized rats. The experiment is classed as in vivo, rat. The settings on record: intravenous 2 μmol/kg. As for the experimental part: as §1, with “tested. Results are shown below:” for “tested.”
Anesthetized rats were prepared as described in Example 18. After the control reponse to 400 ng/kg angiotensin I was measured for a given rat, the named compound was administered via a femoral vein. The dose was 2 μmol/kg of the named compound in 15 μl 0.01 N sodium bicarbonate. The results are shown as percent of the control response.

Non-standard residues stand in square brackets, D forms with d. Residues, ends and D or L forms follow the SMILES beside them. No end group written: not given here. *: point of attachment. pGlu = O=C1CC[C@@H](C(=O)O)N1; Bz = O=C(c1ccccc1)*

Broadly, the Km is the substrate concentration at which the rate is half of its maximum.

As to `C[C@H](NC(=O)[C@H](Cc1c[nH]c2ccccc12)NC(=O)[C@H](CCCCN)NC(=O)[C@@H]1CCC(=O)N1)C(=O)N1CCC[C@H]1C(=O)O` [BPP5a, <GluLysTrpAlaPro] ([pGlu]KWAP-OH), the “Km relative to angiotensin I (competitive substrate)” value in experiment [1] is recorded as “lower Km than angiotensin I”.

`CC(C)C[C@H](NC(=O)[C@H](Cc1cnc[nH]1)NC(=O)CNC(=O)c1ccccc1)C(=O)O` [Benzoyl-GlyHisLeu] (Bz-Gly-His-Leu-OH): the Km in experiment [2] is ~200 µM.

As for `C[C@H](CSC(=O)[C@H](Cc1ccccc1)NC(=O)[C@@H]1CCC(=O)N1)C(=O)N1CCC[C@H]1C(=O)O` [Example 15, N^α - [3-(Pyro-L-glutamyl-L-phenylalanylthio)-2-D-methylpropanoyl]-L-proline], the “Blood pressure response to 400 ng/kg of Angiotensin I” value in experiment [3] (5 min) is reported as 66 % of Control; in experiment [3] (15 min) it was 26 % of Control; in experiment [3] (18 min), 26 % of Control; in experiment [3] (21 min), 21 % of Control; in experiment [3] (25 min), 21 % of Control; in experiment [3] (29 min), 24 % of Control. For the same molecule, the “Blood pressure response to 400 ng/kg of Angiotensin I” value is on record as 18 % of Control in experiment [3] (39 min); 16 % of Control in experiment [3] (44 min); 16 % of Control in experiment [3] (49 min); 18 % of Control in experiment [3] (54 min); 18 % of Control in experiment [3] (60 min); 18 % of Control in experiment [3] (74 min). Besides, the “Blood pressure response to 400 ng/kg of Angiotensin I” value in experiment [3] (86 min) is listed as 21 % of Control; in experiment [3] (110 min), 21 % of Control; in experiment [3] (120 min), 26 % of Control; in experiment [3] (132 min) it was 26 % of Control; in experiment [3] (142 min), 26 % of Control; in experiment [3] (+1 min) it was 53 % of Control. The “Blood pressure response to 400 ng/kg angiotensin I” value is 18 % of control in experiment [4] (5 min); 21 % of control in experiment [4] (11 min); 24 % of control in experiment [4] (14 min); 29 % of control in experiment [4] (17 min); 34 % of control in experiment [4] (20 min); 42 % of control in experiment [4] (24 min). In addition, the “Blood pressure response to 400 ng/kg angiotensin I” value was 47 % of control in experiment [4] (32 min); 53 % of control in experiment [4] (43 min); 58 % of control in experiment [4] (49 min); 61 % of control in experiment [4] (56 min); 71 % of control in experiment [4] (71 min); 68 % of control in experiment [4] (76 min). The “Blood pressure response to 400 ng/kg angiotensin I” value in experiment [4] (88 min) is 76 % of control; in experiment [4] (99 min), 76 % of control; in experiment [4] (109 min), 74 % of control; in experiment [4] (125 min) it was 84 % of control; in experiment [4] (+1/2 min (30 sec.)), 8 % of control.

RPPGFSPFR [bradykinin]: the “Km relative to angiotensin I (competitive substrate)” value in experiment [1] is reported as “lower Km than angiotensin I”.
